Experimental data as given in patent US4774381A, “Herbicide resistant tobacco” (E. I. Du Pont de Nemours and Company, priority 1985, dated 1988).

Assays:
[1] = test system: pea seedlings and root cultures; details: medium supplementation; cited from earlier work
[2] = test system: callus cultures derived from plants that carried the S4 mutation; assay: Callus growth on herbicide-supplemented medium; assay type: cell-based, Nicotiana tabacum; details: herbicide at 5 parts per billion (ppg) (14 nM)
Text: A plant heterozygous for the S4 mutation was constructed by a series of backcrosses of a plant regenerated from a herbicide-resistant tobacco cell line with plants of the parental variety (N. tabacum cv. Xanthi). Self-fertilization of this heterozygous individual yielded homozygous mutant, heterozygous, and homozygous normal progeny in the ratio of 1 to 2 to 1, respectively, which is expected for segregation of a single semidominant nuclear allele. The genotypes of these progeny plants were confirmed by analysis of a subsequent generation. Callus cultures were established as previously described from several of the genetically defined isolates produced by self-fertilization of the S4/+ heterozygote. […] Cell suspension cultures were initiated from these callus cultures and from the parental haploid cell line (H1) by transferring callus to a liquid C1 medium in which 2,4-dichlorophenoxyacetic acid (2 mg/L) had been substituted for napthaleneacetic acid and from which agar had been omitted. ALS activity was then assayed in extracts prepared from these cell suspension cultures as follows.

[3] = test system: acetolactate synthase (ALS), Isolate 16 (S4/S4) extract; assay: ALS activity assay in cell extracts; assay type: biochemical, Nicotiana tabacum; details: for Uninhibited activity (%) in the Presence of Chlorsulfuron: Isolate 16 (S4/S4)
Description: Cell suspension cultures of normal (H1) and homozygous mutant (Isolate 16) cell lines were washed in C1 liquid medium. After washing, cells were extracted in a 100 mM potassium phosphate buffer (pH 7.5) containing 0.5 mM MgCl2, 1 mM sodium pyruvate, 0.5 mM thiamine pyrophosphate, 10 micromolar flavine-adenine dinucleotide (FAD) and 10 percent (by volume) glycerol. Polyclar AT (BDH Chemicals Ltd) was added to a final concentration of 250 mg per gram fresh weight of tissue. After centrifugation at 27,000xg for 15 minutes at 4°, an equal volume of a saturated solution of amminium sulfate was added to the supernatant fraction. The resultant precipitate (representing a 0 to 50 percent ammonium sulfate fraction) was redissolved in 100 mM potassium phosphate buffer (pH 7.5) containing 0.5 mM MgCl2, 1 mM sodium pyruvate, and salts were removed by passage through a Sephadex G-25 (Pharmacia PD-10) column.
ALS activity was assayed in a total volume of 500 microliters containing 100 microliters of the column eluate, 65 mM potassium phosphate buffer (pH 7.5) containing 10 mM MgCl2, 40 mM sodium pyruvate, 250 micromolar thiamine pyrophosphate, 23 micromolar FAD, and 1, 5, 10, 50, 100, 500 or 1000 ppb chlorsulfuron or sulfometuron-methyl. After incubation at 30° for 90 minutes, 250 microliters of 6N H2 SO4 was added to each assay tube, and the tubes were incubated at 55° for 10 minutes to terminate the enzymatic reaction and achieve complete conversion of acetolactate to acetoin. Acetoin content was then measured by a modification of the procedure described by Westerfield, J. Biol. Chem. 161:495 (1945). To each tube was added sequentially 100 microliters 50 percent NaOH, 150 microliters 0.5 percent creatine, and 150 microliters 5 percent alpha-napthol (in 2.5N NaOH). Color development was accelerated by incubation at 55° for 10 minutes. Tubes were then centrifuged, and the optical density was read at 530 nm. Background optical densities, which were subtracted from the optical density values of the reactions, were determined for each extract from parallel assays to which the enzyme extract was added after the addition of 6N H2 SO4. Protein concentrations were measured with Bio-Rad Protein Assay reagent with bovine serum albumin as a standard. Data points and specific activities, which are set forth below and in FIG. 2, represent the average values of at least three independent determinations. ALS activities are presented in FIG. 2 as percent activity in the absence of herbicide.
Responses to chlorsulfuron were determined for ALS activities in extracts of cells suspension cultures derived from nine individuals that differed with resepct to the S4 mutation. As described above, these individuals were produced by self-fertilization of an S4/+ heterozygote, and their genotypes were established by means of progeny analysis. Callus and plant phenotypes were determined by growth responses of cell cultures and seedlings, respectively, on herbicide-supplemented medium. […] In contrast, all individuals homozygous for the S4 mutation contained a highly resistant form of the enzyme. […] The correlation between both callus and plant phenotype and the response of ALS activity in vitro to the herbicide is both absolute and quantitative.

[4] = test system: S6/S6 homozygous mutant cell line; assay: Callus growth test; assay type: cell-based, Nicotiana tabacum; details: 10 ppb herbicide
Description: (§1) Callus growth tests were conducted substantially according to the following procedure. Approximately 50 mg callus tissue, grown on non-selective media, was spread over 7 cm diameter paper filter discs (Whatman No. 1), which were placed on the medium surface of petri dishes containing C1 agar media and varying concentrations of chlorsulfuron. The resulting cultures were incubated for 14 days at 25±1°, under fluorescent lamps programmed to provide a 16-hour photoperiod per day. At the conclusion of the incubation period, tissue was scraped from each filter disc and weighed. The final fresh weights were recorded, and means and standard errors of the means determined for all cases. The significance of differences between responses of individual cell lines to various concentrations of chlorsulfuron was determined at a probability level of 5% by a t-test for populations having different standard deviations, as described by Snedecor, et al., Statistical Methods (Iowa State University Press, Ames, Iowa, (1967), pp. 114-116).
(§2) A series of experiments was performed to investigate further the cross-resistance of various resistant cell lines to other herbicidally-effective sulfonamides. First, several homozygous mutant cell lines were evaluated for resistance to sulfometuron-methyl and chlorsulfuron by callus growth tests, performed substantially similarly to the callus growth experiments previously described. In these experiments, callus cultures were derived from R1 plants, which constitute the progeny produced by self-fertilization of a regenerated plant.

[5] = test system: C3/C3 homozygous mutant cell line; assay: Callus growth test; assay type: cell-based, Nicotiana tabacum; details: 10 ppb herbicide
Description: as §1, §2

[6] = test system: S5/S5 homozygous mutant cell line; assay: Callus growth test; assay type: cell-based, Nicotiana tabacum; details: 10 ppb herbicide
Description: as §1, §2

[7] = test system: Normal (H1) cell line; assay: Callus growth test; assay type: cell-based, Nicotiana tabacum; details: for % of control fresh weight / Fr. Wt.: 10 ppb herbicide, H1 (Table 4)
Description: as §1, §2

[8] = test system: S4/S4 homozygous mutant cell line; assay: Callus growth test; assay type: cell-based, Nicotiana tabacum; details: for % of control fresh weight / Fr. Wt.: 10 ppb herbicide, S4/S4 (Table 4)
Description: as §1, §2

[9] = test system: S1/S1 homozygous mutant cell line; assay: Callus growth test; assay type: cell-based, Nicotiana tabacum; details: 10 ppb herbicide
Description: as §1, §2

[10] = test system: C4/C4 homozygous mutant cell line; assay: Callus growth test; assay type: cell-based, Nicotiana tabacum; details: 10 ppb herbicide
Description: as §1, §2

## COc1nc(C)nc(NC(=O)NS(=O)(=O)c2ccccc2Cl)n1 [Chlorsulfuron, chlorsulfuron]
[1]
  reversal of growth inhibition: prevented by supplementation of the medium with isoleucine and valine
[2]
  growth on supplemented medium: capable of growth
[3]; 10 ppb
  Uninhibited activity (%) in the Presence of Chlorsulfuron: […]
[3]; 30 ppb
  Uninhibited activity (%) in the Presence of Chlorsulfuron: […]
[3]; 100 ppb
  Uninhibited activity (%) in the Presence of Chlorsulfuron: […]
[3]; homozygous mutant extract, not achieved at highest concentration tested, 90 min
  concentration inhibiting ALS activity 50 percent: […]
[3]; homozygous mutant extract, not achieved at highest concentration tested, read-out: concentration inhibiting ALS activity 50 percent
  IC50: […]
[4]
  % of control fresh weight: 32.1%
  Fr. Wt.: 1076 ± 108
[5]
  % of control fresh weight: 86.7%
  Fr. Wt.: 1896 ± 119
[6]
  % of control fresh weight: 27.5%
  Fr. Wt.: 725 ± 95
[7]
  % of control fresh weight: 1.3%
  Fr. Wt.: 33 ± 2
[8]
  % of control fresh weight: 96.5%
  Fr. Wt.: 3171 ± 260
[8]; Nicotiana tabacum, 10 ppb (28 nM), homozygous mutant cell line, read-out: growth inhibited (percent)
  inhibition at 0.028 µM: < 5%
[9]
  % of control fresh weight: 11.5%
  Fr. Wt.: 309 ± 34
[10]
  % of control fresh weight: 83.5%
  Fr. Wt.: 3453 ± 231

## COC(=O)c1ccccc1S(=O)(=O)NC(=O)Nc1nc(C)cc(C)n1 [Sulfometuron-methyl, sulfometuron-methyl]
[2]
  growth on supplemented medium: capable of growth
[3]; mutant cell line versus parental activity
  resistance of mutant ALS activity to inhibition: more resistant than the parental activity
[4]
  % of control fresh weight: 26.5%
  Fr. Wt.: 887 ± 92
[5]
  % of control fresh weight: 62.6%
  Fr. Wt.: 1369 ± 63
[6]
  % of control fresh weight: 13.0%
  Fr. Wt.: 344 ± 55
[7]
  % of control fresh weight: 1.2%
  Fr. Wt.: 32 ± 2
[7]; Nicotiana tabacum, 336 h, sulfometuron-methyl 1 ppb, Normal (H1) (Table 6), read-out: % of fresh weight at 0 ppb
  activity at 0.001 µg/mL: 1.4%
[7]; Nicotiana tabacum, 336 h, sulfometuron-methyl 10 ppb, Normal (H1) (Table 6), read-out: % of fresh weight at 0 ppb
  activity at 0.01 µg/mL: 1%
[7]; sulfometuron-methyl 1 ppb, Normal (H1) (Table 6)
  Fr. wt.: 39 ± 2 mg
[7]; sulfometuron-methyl 10 ppb, Normal (H1) (Table 6)
  Fr. wt.: 29 ± 1 mg
[8]
  % of control fresh weight: 33.6%
  Fr. Wt.: 1105 ± 80
[8]; 200 ppb sulfometuron-methyl
  growth of S4/S4 mutant cell line: completely inhibits growth
[8]; Nicotiana tabacum, 336 h, sulfometuron-methyl 10 ppb, S4/S4 (Table 6), read-out: % of fresh weight at 0 ppb
  activity at 0.01 µg/mL: 34%
[8]; sulfometuron-methyl 10 ppb, S4/S4 (Table 6)
  Fr. wt.: 1105 ± 80 mg
[9]
  % of control fresh weight: 6.4%
  Fr. Wt.: 172 ± 14
[10]
  % of control fresh weight: 83.9%
  Fr. Wt.: 3473 ± 323
